The target of the assay is T1, EHMT2 (Homo sapiens, UniProt Q96KQ7).
T1 construct: host or cells: MDA-MB-231
T1 sequence (Q96KQ7 1-1210): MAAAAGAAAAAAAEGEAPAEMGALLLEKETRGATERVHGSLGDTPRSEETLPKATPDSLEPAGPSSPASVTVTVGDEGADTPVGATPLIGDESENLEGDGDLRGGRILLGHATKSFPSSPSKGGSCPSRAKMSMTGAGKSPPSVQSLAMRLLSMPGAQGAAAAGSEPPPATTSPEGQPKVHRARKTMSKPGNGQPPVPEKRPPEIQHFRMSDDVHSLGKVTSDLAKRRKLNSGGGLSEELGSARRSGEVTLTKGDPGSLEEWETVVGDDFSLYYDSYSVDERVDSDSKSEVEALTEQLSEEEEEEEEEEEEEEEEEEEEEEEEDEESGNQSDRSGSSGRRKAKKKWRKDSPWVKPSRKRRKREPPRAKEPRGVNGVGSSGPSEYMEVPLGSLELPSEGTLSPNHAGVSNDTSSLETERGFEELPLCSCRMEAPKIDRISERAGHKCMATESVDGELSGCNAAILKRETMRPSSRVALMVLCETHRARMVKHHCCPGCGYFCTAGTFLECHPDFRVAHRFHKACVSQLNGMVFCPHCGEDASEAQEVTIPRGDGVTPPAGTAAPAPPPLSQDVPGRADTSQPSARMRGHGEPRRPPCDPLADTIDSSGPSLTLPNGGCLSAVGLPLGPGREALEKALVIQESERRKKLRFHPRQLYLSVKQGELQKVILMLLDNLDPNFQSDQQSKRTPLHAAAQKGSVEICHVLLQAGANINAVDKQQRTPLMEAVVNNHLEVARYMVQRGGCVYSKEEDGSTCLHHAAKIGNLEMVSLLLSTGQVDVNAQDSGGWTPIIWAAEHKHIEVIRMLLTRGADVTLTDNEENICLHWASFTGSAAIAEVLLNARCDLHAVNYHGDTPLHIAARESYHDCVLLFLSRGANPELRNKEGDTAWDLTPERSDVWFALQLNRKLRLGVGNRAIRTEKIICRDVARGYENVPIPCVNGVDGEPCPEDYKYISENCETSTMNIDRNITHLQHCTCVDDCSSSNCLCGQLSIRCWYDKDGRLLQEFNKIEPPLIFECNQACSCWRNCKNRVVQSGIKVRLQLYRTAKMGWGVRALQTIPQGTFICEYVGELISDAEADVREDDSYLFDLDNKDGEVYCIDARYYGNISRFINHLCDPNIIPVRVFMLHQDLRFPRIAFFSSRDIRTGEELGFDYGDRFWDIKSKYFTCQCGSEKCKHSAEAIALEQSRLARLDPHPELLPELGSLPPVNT
As to the kind of experiment: MDA-MB-231 H3K9me2 in-cell Western assay (EHMT2 ICW). It counts as cell-based. The following applies: Table III; MDA-MB-231 H3K9me2 in-cell Western; read-out: EHMT2 ICW (IC50 μM). An outline of the steps: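 MDA-MB-231 cells (3,000/well) seeded onto compound, kept 30 min at room temperature, then 48 h at 37 °C, 5% CO2. IC50 from triplicate wells, four-parameter fit.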

Some results are limits rather than exact numbers.

With `CNc1cc(C)nc(Nc2ccc(OC)c(O[C@H]3C[C@@H](N(C)C)C3)c2)n1` (single isomer, unassigned) [Compound 317, N^2-(3-((1s,3s)-3-(dimethylamino)cyclobutoxy)-4-methoxyphenyl)-N^4,6-dimethylpyrimidine-2,4-diamine], the IC50 was in the range of 1 to 10 µM.

`CNc1ccnc(Nc2ccc(OC)c(OC[C@@H]3CN(C)C[C@H]3C)c2)n1` (single isomer, unassigned) [Compound 438]: the IC50 was over 10 µM.

As for `CNc1ccnc(Nc2ccc(OC)c(OC[C@H]3CN(C)C[C@@H]3C)c2)n1` (single isomer, unassigned) [Compound 439], the IC50 lay within 0.1 to 1 µM.

In the case of `CNc1ccnc(Nc2cccc(COCCN3CCCC3)n2)c1` [Compound 267, N^4-methyl-N^2-(6-((2-(pyrrolidin-1-yl)ethoxy)methyl)pyridin-2-yl)pyridine-2,4-diamine], the IC50 is over 10 µM.

As for `CNc1cc(Nc2cccc(COCCN3CCCC3)n2)ccn1` [Compound 268, N^2-methyl-N^4-(6-((2-(pyrrolidin-1-yl)ethoxy)methyl)pyridin-2-yl)pyridine-2,4-diamine], the IC50 was over 10 µM.

Consider `CNc1nc(C2CCN(C)CC2)c2cc(OC)c(OCCCN3CCCC3)cc2n1` [Compound 270], for which the IC50 was in the range of 0.1 to 1 µM.

For the compound `CNc1ccnc(Nc2ccc(OC)c(OCCCN3CC[C@H](F)C3)c2)n1` [Compound 271], the IC50 was over 10 µM.

In the case of `CNc1cc(Nc2ccc(OC)c(OCCCN3CCCC3)c2)ncc1F` [Compound 272, 5-fluoro-N^2-(4-methoxy-3-(3-(pyrrolidin-1-yl)propoxy)phenyl)-N^4-methylpyridine-2,4-diamine], the IC50 was 1 to 10 µM.

Consider `CNc1cc(Nc2ccc(OC)c(OCCCN3CCCC3)c2)cc(C(F)(F)F)n1` [Compound 273], for which the IC50 was over 10 µM.

For the compound `CNc1ccnc(Nc2cccc(N3CCC(N)C3=O)c2)n1` (centres unmarked) [Compound 274], the IC50 was over 10 µM.

As for `CNc1ccnc(Nc2cccc(N3CCC(N(C)C)C3=O)c2)n1` (centres unmarked) [Compound 275], the IC50 is over 10 µM.

Consider `CNc1ccnc(Nc2cccc(OCC(F)CN3CCCC3)c2)n1` (centres unmarked) [Compound 276, N^2-(3-(2-fluoro-3-(pyrrolidin-1-yl)propoxy)phenyl)-N^4-methylpyrimidine-2,4-diamine], for which the IC50 was over 10 µM.

Take `CNc1ccnc(Nc2cccc(OCC(F)(F)CN3CCCC3)c2)n1` [Compound 277, N^2-(3-(2,2-difluoro-3-(pyrrolidin-1-yl)propoxy)phenyl)-N^4-methylpyrimidine-2,4-diamine]: the IC50 is over 10 µM.

Take `COc1ccc(Nc2nccc(NCC3CC(C)(C)NC(C)(C)C3)n2)cc1OCCCN1CCCC1` [Compound 278]: the IC50 was 1 to 10 µM.

Turning to `CNc1ccnc(Nc2cccc(C(C)OCCN3CCCC3)c2)n1` (centres unmarked) [Compound 279, N^4-methyl-N^2-(3-(1-(2-(pyrrolidin-1-yl)ethoxy)ethyl)phenyl) pyrimidine-2,4-diamine], the IC50 is over 10 µM.

`CCN(CC)CCCOc1cc(Nc2nccc(NC)n2)ccc1OC` [Compound 280, N^2-(3-(3-(diethylamino)propoxy)-4-methoxyphenyl)-N^4-methylpyrimidine-2,4-diamine]: the IC50 was in the range of 1 to 10 µM.

As to `CNc1ccnc(Nc2ccc(OC)c(OCCCN3CCC(S(C)(=O)=O)C3)c2)n1` (centres unmarked) [Compound 282], the IC50 was over 10 µM.

As to `CNc1ccnc(Nc2ccc(OC)c(OCCCN3CCC(OC)C3)c2)n1` (centres unmarked) [Compound 283, N^2-(4-methoxy-3-(3-(3-methoxypyrrolidin-1-yl)propoxy)phenyl)-N^4-methylpyrimidine-2,4-diamine], the IC50 is 0.1 to 1 µM.

Turning to `CNc1ccnc(Nc2ccc(OC)c(OCCCN3CCC4(COC4)C3)c2)n1` [Compound 284], the IC50 was over 10 µM.

As for `CNc1ccnc(Nc2ccc(OC)c(OCCCN3CCC(C(F)(F)F)C3)c2)n1` (centres unmarked) [Compound 285, N^2-(4-methoxy-3-(3-(3-(trifluoromethyl)pyrrolidin-1-yl)propoxy)phenyl)-N^4-methylpyrimidine-2,4-diamine], the half-inhibitory concentration (IC50) was over 10 µM.

Regarding `CNc1ccnc(Nc2ccc(OC)c(OCCCN3CCC(O)C3)c2)n1` (centres unmarked) [Compound 286, 1-(3-(2-methoxy-5-((4-(methylamino)pyrimidin-2-yl)amino)phenoxy)propyl)pyrrolidin-3-ol], the IC50 is 0.1 to 1 µM.

For the compound `CNc1ccnc(Nc2ccc(OC)c(OCCCN3CCC(C#N)C3)c2)n1` (centres unmarked) [Compound 287, 1-(3-(2-methoxy-5-((4-(methylamino)pyrimidin-2-yl)amino)phenoxy)propyl)pyrrolidine-3-carbonitrile], the IC50 is over 10 µM.

Turning to `CNc1ccnc(Nc2ccc(OC)c(OCCC3CCCN3C)c2)n1` (centres unmarked) [Compound 288, N^2-(4-methoxy-3-(2-(1-methylpyrrolidin-2-yl)ethoxy)phenyl)-N^4-methylpyrimidine-2,4-diamine], the IC50 lay in the range of 1 to 10 µM.

Regarding `CNc1ccnc(Nc2ccc(OC)c(OCC3CCCN3C)c2)n1` (centres unmarked) [Compound 289, N^2-(4-methoxy-3-((1-methylpyrrolidin-2-yl)methoxy)phenyl)-N^4-methylpyrimidine-2,4-diamine], the IC50 was in the range of 0.1 to 1 µM.

As for `CNc1ccnc(Nc2ccc(OC)c(OCCCN3CCCC3C)c2)n1` (centres unmarked) [Compound 290, N^2-(4-methoxy-3-(3-(2-methylpyrrolidin-1-yl)propoxy)phenyl)-N^4-methylpyrimidine-2,4-diamine], the IC50 fell in the range of 1 to 10 µM.

With `CCNC(=O)c1cc(Nc2nccc(NC)n2)ccn1` [Compound 291, N-ethyl-4-((4-(methylamino)pyrimidin-2-yl)amino)picolinamide], the IC50 is over 10 µM.

Take `CNc1ccnc(Nc2ccc(OC)c(OCCCN3CCC(C)C3)c2)n1` (centres unmarked) [Compound 293, N^2-(4-methoxy-3-(3-(3-methylpyrrolidin-1-yl)propoxy)phenyl)-N^4-methylpyrimidine-2,4-diamine]: the IC50 is 1 to 10 µM.

For `CNc1ccnc(Nc2cccc3oc(CCN(C)C)nc23)n1` [Compound 295], the IC50 is over 10 µM.

As to `CNc1ccnc(Nc2cccc(N3CC(N)CC3=O)c2)n1` (centres unmarked) [Compound 296], the IC50 was over 10 µM.

For `CNc1ccnc(Nc2cccc(N3CCC(N)C3)c2)n1` (centres unmarked) [Compound 297], the IC50 is over 10 µM.

`CNc1ccnc(Nc2ccc(OC)c(OCCCN3CC4CC4C3)c2)n1` (centres unmarked) [Compound 298, N^2-(3-(3-(3-azabicyclo[3.1.0]hexan-3-yl)propoxy)-4-methoxyphenyl)-N^4-methylpyrimidine-2,4-diamine]: the IC50 lay within 0.1 to 1 µM.

For the compound `CNc1ccnc(Nc2ccc(OC)c(OC[C@H](O)CN3CCCC3)c2)n1` [Compound 299, (R)-1-(2-methoxy-5-((4-(methylamino)pyrimidin-2-yl)amino)phenoxy)-3-(pyrrolidin-1-yl)propan-2-ol], the IC50 lay in the range of 0.1 to 1 µM.

Turning to `CNc1ccnc(Nc2ccc(OC)c(OC[C@@H](O)CN3CCCC3)c2)n1` [Compound 300, (S)-1-(2-methoxy-5-((4-(methylamino)pyrimidin-2-yl)amino)phenoxy)-3-(pyrrolidin-1-yl)propan-2-ol], the IC50 lay in the range of 0.1 to 1 µM.

`CNc1cc(C)nc(Nc2cc(F)c(OC)c(OCCCN3CCCC3)c2)n1` [Compound 301, N2-(3-fluoro-4-methoxy-5-(3-(pyrrolidin-1-yl)propoxy)phenyl)-N4,6-dimethylpyrimidine-2,4-diamine]: the IC50 was over 10 µM.

Consider `CNc1cc(C)nc(Nc2cc(OCCCN3CCCC3)c(OC)cc2F)n1` [Compound 302, N^2-(2-fluoro-4-methoxy-5-(3-(pyrrolidin-1-yl)propoxy)phenyl)-N^4,6-dimethylpyrimidine-2,4-diamine], for which the IC50 was over 10 µM.

`CNc1cc(C)nc(Nc2cc(OCCCN3CCCC3)c(OC)cn2)n1` [Compound 303, N^2-(5-methoxy-4-(3-(pyrrolidin-1-yl)propoxy)pyridin-2-yl)-N^4,6-dimethylpyrimidine-2,4-diamine]: the IC50 is 1 to 10 µM.

For the compound `COc1cnc(Nc2nccc3[nH]ccc23)cc1OCCCN1CCCC1` [Compound 304], the IC50 fell in the range of 0.1 to 1 µM.

For the compound `CNc1ccnc(Nc2cc(OCCCN3CCCC3)c(OC)cn2)c1` [Compound 305, N^2-(5-methoxy-4-(3-(pyrrolidin-1-yl)propoxy)pyridin-2-yl)-N^4-methylpyridine-2,4-diamine], the IC50 fell in the range of 0.1 to 1 µM.

What is called IC50 is the concentration needed to halve the response being measured.

The record behind these values is US20210198277A1, “AMINE-SUBSTITUTED ARYL OR HETEROARYL COMPOUNDS” (Epizyme, Inc., priority 2016, published 2021).
